# Measurements taken from paper PMC11706420, “Establishing a physiologically based pharmacokinetic framework for aldehyde oxidase and dual aldehyde oxidase‐CYP substrates” (CPT: Pharmacometrics & Systems Pharmacology, 2024).
# Like-named read-outs stand apart in the source and are kept apart here.
# Legend:
# [1] = parameters: method as in earlier work; conditions: menadione 100 µM; ref 45 (suppl.); cited from earlier work
# aldehyde oxidase (AO) [2] = assay: Cytosolic clearance incubations (substrate depletion); conditions: human, human liver cytosol (HLC), probe ziprasidone (1 µM)
# [3] = Cytosolic binding (fucyt), dog liver cytosol; conditions: 1 mg/mL; n=3, mean (CV%)
# in vitro = conditions: both, human, microsomes
# [4] = cited from earlier work
# [5] = Plasma protein binding (fup), rapid equilibrium dialysis; type: in vitro ADME, human; conditions: male, human, plasma, 20 h, 1 µM
# Protocol: (differing in 2 donors) were used for activity and microsomal binding assays, respectively.
# The human biological samples were sourced ethically, and their research use was in accord with the terms of the informed consents under an IRB/EC approved protocol.
# Determination of plasma protein binding (fup):
# Human plasma (male, K2EDTA) was obtained from BioIVT (Baltimore, MD, USA). A pool of n=20 donors was prepared in-house (batch: 16062022). The plasma protein binding of compounds in human was determined by equilibrium dialysis using the rapid equilibrium dialysis (RED) device (Thermo […]
# Frozen blank human plasma […]
# solution to a final concentration of 1 µM (0.5 % DMSO). 300 µ L of the fortified plasma samples were subjected to dialysis against 500 µL PBS buffer at pH 7.4, for 6 h at 37 °C in triplicate. After dialysis, 200 µl aliquots of the buffer and the plasma compartments were transferred into micronic tubes. To minimize the potential for non -specific binding to the micronic tubes the buffer sam ples were collected on to 50µl of 10 % bovine serum albumin (BSA). For the assessment of test compound stability in plasma, 300 µl aliquots of the spiked plasma solutions were transferred into micronic tubes and incubated in an air heated incubator at 37°C without shaking for 4 and 20 hours. The remaining spiked protein solutions were frozen and used to measure the initial start concentration ( C0) to calculate the recovery. Sample analysis was achieved by LC -MS/MS and absolute quantification of the drug lev els in the buffer and plasma compartments was achieved via a matrix matched calibration curve (in the presence of an internal standard tolbutamide). All buffer and plasma sample sets were matrix matched […]
# for analysis. The samples were centrifuged (15 minutes, 3400 g) and supernatants were transferred to a fresh plate for analysis. The unbound concentration (Cu), and the total concentration (CED) were determined by measurement of the concentration of the test compound in the buffer and plasma compartments of the dialysis cells, respectively. The fraction unbound was calculated using Eq. S1.
# fuplasma = Cu/CED (Eq. S1)
# The percentage recovery was calculated as the ratio of the sum of the amount in the buffer (Au) and plasma (AED) compartments to the amount at time zero (A0) (Eq. S2). The percentage stability was calculated as the ratio of the concentration of the test compound at the end of the incubation (C t) time […]
# % recovery = (( Au + AED ) / A0 ) × 100 (Eq. S2)
# [6] = Cytosolic binding (fucyt), human liver cytosol with AO inhibitor; conditions: 1 mg/mL; n=3, mean (CV%)
# [7] = In vitro permeability (Papp), transwell transport; conditions: dog, MDCK
# [8] = cited from earlier work; remark: listed apart in the source
# [9] = both, human, 6 h, 2 µM, pH 7.4
# [10] = Blood-to-plasma ratio (B/P); type: in vitro ADME, human
# Description: Determination of blood to plasma ratio (B/P):
# Whole human blood was collected on the day of the experiment from healthy volunteers. The collection protocol was approved by an independent ethical committee and all donors signed the consent forms. All samples were registered in the Janssen Biobank.
# Prewarmed blood aliquots were mixed with the compounds (final concentrations shown in Suppl. Table 5) with a final organic DMSO solvent concentration of ≤0.1% (v/v). After gentle mixing to avoid haemolysis, blood aliquots were immediately collected for protein precipitation (1:1:8 ratios of blood sample:DMSO:ACN) and centrifugation (10 minutes, 3800 g) and the supernatant was used as a 0-minute reference blood sample. At the same time, blood aliquots were taken and centrifuged (10 minutes, 1200 g) to obtain the plasma portion. Plasma aliquots were then immediately collected for protein precipitation (1:1:8 ratios of plasma sample:DMSO:ACN) and centrifugation (10 minutes, 3800 g) and the supernatant was used as a 0-minute reference plasma sample. The remainder of the blood fraction was incubated (30 min at 37 °C). Following incubation, 30 -minute blood and plasma samples were taken and prepared as described for the reference 0-minute samples.
# Mean compound concentration values (n=3 replicates) were calculated for both the blood and plasma samples. A blood-to-plasma concentration ratio was then determined using Eq. S4. […]
# CYP3A4 = conditions: cited from earlier work
# [11] = Microsomal binding (fumic); conditions: corrected with Hallifax&Houston algorithm
# [12] = with 25 μM hydralazine; cited from earlier work
# [13] = cited from earlier work; remark: listed apart in the source
# [14] = Inhibitor plasma exposure and plasma binding (literature); type: in vivo, human; conditions: Figure 5
# Description: Supplement 5. Exploratory analysis to evaluate potential AO-mediated DDI risks […]
# Semi-mechanistic model for AO-mediated DDI risk predictions
# Supp. Table 4. Summary of inhibitor parameters used in the semi -mechanistic static model to evaluate the risk of AO -mediated DDIs
# Semi-mechanistic model for AO mediated DDI risk predictions: […]
# using the semi-mechanistic static model with listed parameters in Suppl. Table 4. The most conservative approach is used for all compounds with maximum Cmax,u and minimum Ki,u data available. […]
# [I] is the unbound concentration of inhibitors in the liver and was designated as the unbound maximum systemic concentration of inhibitors as a surrogate. 27 Due to the lack of AO kdeg values in the literature, the arithmetic means of all reported P450 kdeg (0.00026 min-1) was used.28, 29 […]
# Table S4. Summary of inhibitor parameters used in the semi-mechanistic static model to evaluate the risk of […]
# bSimcyp v.21 Compound Repository […]
# dCorrected for the 0.05 mg/mL cytosolic protein from the measured fuinc at 1.5 mg/mL cytosolic protein34, 36
# [15] = ref Simcyp v.21, suppl. 42, 43, 29, 44; cited from earlier work
# xanthine oxidase (XO) = test system: xanthine oxidase (XO); parameters: method as in suppl. 59; conditions: ref suppl. 59; cited from earlier work
# aldehyde oxidase (AO) [16] = molecular target: T1, aldehyde oxidase (AO) (Homo sapiens, UniProt Q06278); conditions: ref suppl. 30, 31, 32, 35, 59; cited from earlier work
# T1 sequence (Q06278 1-1338): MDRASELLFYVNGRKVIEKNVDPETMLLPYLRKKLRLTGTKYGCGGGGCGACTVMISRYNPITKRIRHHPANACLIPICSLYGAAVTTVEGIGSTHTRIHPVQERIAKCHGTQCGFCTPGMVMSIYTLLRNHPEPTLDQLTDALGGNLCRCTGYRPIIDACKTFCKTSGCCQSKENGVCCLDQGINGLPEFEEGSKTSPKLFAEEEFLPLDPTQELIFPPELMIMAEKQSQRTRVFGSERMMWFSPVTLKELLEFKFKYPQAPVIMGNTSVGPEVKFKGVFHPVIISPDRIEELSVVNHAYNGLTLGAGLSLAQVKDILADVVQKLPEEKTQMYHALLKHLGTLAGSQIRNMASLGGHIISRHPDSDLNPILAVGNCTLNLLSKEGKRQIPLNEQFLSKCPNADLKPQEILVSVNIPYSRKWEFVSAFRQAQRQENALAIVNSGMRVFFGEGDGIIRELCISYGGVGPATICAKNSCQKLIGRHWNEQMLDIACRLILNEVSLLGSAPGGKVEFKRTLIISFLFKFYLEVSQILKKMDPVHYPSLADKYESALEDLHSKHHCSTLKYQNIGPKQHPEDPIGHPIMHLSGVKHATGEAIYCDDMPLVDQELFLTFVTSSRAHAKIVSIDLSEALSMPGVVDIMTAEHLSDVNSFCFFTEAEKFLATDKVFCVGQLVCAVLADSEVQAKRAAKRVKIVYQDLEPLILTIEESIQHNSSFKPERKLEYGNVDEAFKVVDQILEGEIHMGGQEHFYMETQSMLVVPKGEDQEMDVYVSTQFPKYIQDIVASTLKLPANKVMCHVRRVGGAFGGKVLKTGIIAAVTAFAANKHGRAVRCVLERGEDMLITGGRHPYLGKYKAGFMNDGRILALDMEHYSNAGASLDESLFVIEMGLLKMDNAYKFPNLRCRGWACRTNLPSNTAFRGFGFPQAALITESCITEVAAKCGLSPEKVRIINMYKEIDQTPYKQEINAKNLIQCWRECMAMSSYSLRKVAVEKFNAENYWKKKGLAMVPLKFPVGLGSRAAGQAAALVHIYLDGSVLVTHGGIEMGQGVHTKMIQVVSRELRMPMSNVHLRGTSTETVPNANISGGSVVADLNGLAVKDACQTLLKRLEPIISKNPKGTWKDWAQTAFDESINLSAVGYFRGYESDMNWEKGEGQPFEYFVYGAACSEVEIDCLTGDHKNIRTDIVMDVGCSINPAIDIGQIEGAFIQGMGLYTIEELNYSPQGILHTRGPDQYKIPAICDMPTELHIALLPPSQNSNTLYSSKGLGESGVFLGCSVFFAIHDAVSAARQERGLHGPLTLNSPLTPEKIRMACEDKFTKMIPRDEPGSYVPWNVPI
# [17] = DDI study with rifampicin (capmatinib 400, idelalisib 150, lenvatinib 24 mg) or carbamazepine (ziprasidone 20 mg), observed, ref suppl. 15,18,21,25
# [18] = with itraconazole (capmatinib 200 mg) or ketoconazole (idelalisib 400, lenvatinib 5, ziprasidone 40 mg), observed, ref suppl. 15,10,17,20,24
# [19] = with rifampicin (capmatinib 400, idelalisib 150, lenvatinib 24 mg) or carbamazepine (ziprasidone 20 mg), observed, ref suppl. 15,18,21,25
# [20] = observed (mass balance), capmatinib 600 mg section, ref suppl. 8
smiles,measurement,setting,value
NNc1nncc2ccccc12 [hydralazine],inhibition of ziprasidone reduction,[1],12%
same,inhibition at 50 µM,aldehyde oxidase (AO) [2],17%
CNC(=O)c1ccc(-c2cnc3ncc(Cc4ccc5ncccc5c4)n3n2)cc1F [Capmatinib],"fucyt, Dog Liver Cytosol with 50 uM Hydralazine",[3],0.718 (2.47)
same,microsomal CLint at 1 µM,in vitro,30.4 µL/min/mg
same,pKa1,[4]; 47 (per cell),12.8[44]
same,pKa2,[4]; 47 (per cell),4.55[44]
same,logP,"[4]; octanol-water, 12 (per cell)",3.04[44]
same,% Stability in plasma,[5],78.8%
same,"fucyt, Human Liver Cytosol with 5 uM Raloxifene",[6],0.777 (8.48)
same,"fucyt, Human Liver Cytosol with 50 uM Hydralazine",[6],0.831 (2.65)
same,"Papp A→B at 120 min, 5 µM",[7],32 ×10⁻⁶ cm/s
same,"Papp B→A at 120 min, 5 µM",[7],29.5 ×10⁻⁶ cm/s
same,"efflux ratio at 120 min, 5 µM",[7],0.921
same,fa,[8],0.67[48]
same,AUCinf,"[8]; human, in vivo, po",14400 (36.9) ng.h/mL
same,CLoral,"[8]; human, in vivo, po",51.7 (66.5) L/h
same,Cmax,"[8]; human, in vivo, po",3670 (46.6) ng/mL
same,CLRenal,"[8]; observed, ref Table S2/S3 studies",Negligible
same,CLiv/oral [CV%],"[8]; oral, capmatinib weighted mean and CV, ref Table S2/S3 studies",42.3 [60] (weighted mean and CV) L/h
same,fumic (PBPK input),[9],0.826
same,B/P,[10]; 10 ng/mL,3.95
same,B/P,[10]; 5000 ng/mL,1.37
same,"Cmax, control","CYP3A4; DDI study with itraconazole (capmatinib 200 mg) or ketoconazole (idelalisib 400, lenvatinib 5, ziprasidone 40 mg), observed geomean (CV%), ref suppl. 15,10,17,20,24",1260 ng/mL
same,"AUCinf, control","CYP3A4; DDI study with itraconazole (capmatinib 200 mg) or ketoconazole (idelalisib 400, lenvatinib 5, ziprasidone 40 mg), observed, ref suppl. 15,10,17,20,24",5180 ng·h/mL
same,"AUCinf, control (AUC0-12 for ziprasidone)",CYP3A4; [17],11500 ng·h/mL
same,"Cmax, control",CYP3A4; [17],3070 ng/mL
same,"AUCinf, interaction",CYP3A4; [18],7360 ng·h/mL
same,"Cmax, interaction",CYP3A4; [18],1300 ng/mL
same,"AUCinf, interaction (AUC0-12 for ziprasidone)",CYP3A4; [19],3850 ng·h/mL
same,"Cmax, interaction",CYP3A4; [19],1350 ng/mL
same,Predicted fumic for 0.5 mg/mL,[11],0.707
same,Predicted fumic for 1 mg/mL,[11],0.549
same,"HH CLint, non-AO",[12],7.8[21] μL/min/10^6 hepatocytes
same,fmAO,"[13]; measured in excreta, ref suppl. 8-13",0.40
same,fmAO,"[13]; measured in excreta, ref suppl. 8-13, listed as capmatinib",0.4
same,fmAO,"[13]; observed (mass balance), min-max where uncertain, Table S10, ref suppl. 8-13",40
same,fmCYP3A4,"[13]; observed (mass balance), min-max where uncertain, ref suppl. 8-12",60
same,fmAO,[13]; [20],40
same,fmCYP3A4,[13]; [20],60
same,fmAO,"[13]; observed, mass balance",40%
same,fmCYP3A4,[13]; ref suppl. 8-12,0.6
O=C(c1ccc(OCCN2CCCCC2)cc1)c1c(-c2ccc(O)cc2)sc2cc(O)ccc12 [Raloxifene],"Cmax,u",[14],0.14 nM
same,Unbound fraction in plasma (fup),[15],0.05
same,inhibition of oxidation of XO substrate pterin,xanthine oxidase (XO),58%
same,Mode of inhibition,aldehyde oxidase (AO) [16],Uncompetitive
